Measurements: patent publication US20250296936A1, “SARS-COV2 MAIN PROTEASE INHIBITORS” (Gilead Sciences, Inc., priority 2024, published 2025)

What follows are molecules tested on SARS-CoV-2-NLuc in A549-hACE2 cells (assay: microbe, parasite or virus in culture). Conditions: Severe acute respiratory syndrome coronavirus, 48 h, read-out: MPro EC50 (nM).
Assay type: cell-based, SARS Coronavirus 2

Row | Structure (SMILES) | EC50 [nM]
1 | N#CCCn1c(=O)n(-c2cncc3c2CCCC3)c(=O)c2oc(-c3ccccc3Cl)cc21 [Example 21] | 29.6
2 | COc1cc(-c2cc3c(o2)c(=O)n(-c2cncc4cnn(C)c24)c(=O)n3CC#N)c(Cl)cc1F [Example 39] | 50.7
3 | N#CC1(Cn2c(=O)n(-c3cncc4ccccc34)c(=O)c3oc(-c4ccccc4Cl)cc32)CC1 [Example 50] | 6.99
4 | Cn1ncc2cncc(-n3c(=O)[nH]c4cc(-c5ccccc5Cl)oc4c3=O)c21 [Example 6] | 174
5 | Cn1ncc2cncc(-n3c(=O)c4oc(-c5ccccc5Cl)cc4n(C)c3=O)c21 [Example 29] | 1170
6 | Cc1cncc(-n2c(=O)[nH]c3cc(-c4ccccc4Cl)oc3c2=O)c1 [Example 8] | 137
7 | Cn1ncc2cncc(-n3c(=O)c4oc(-c5ccccc5Cl)cc4n(CCC#N)c3=O)c21 [Example 18] | 27.8

Same assay, conditions: read-out: MPro EC50

Row | Structure (SMILES) | EC50 [nM]
8 | COc1cc(-c2cc3c(o2)c(=O)n(-c2cncc4cnn(C)c24)c(=O)n3CCC#N)c(Cl)cc1F (single isomer, unassigned) [Example 63, 3-[6-(2-chloro-4-fluoro-5-methoxy-phenyl)-3-(1-methylpyrazolo[4,3-c]pyridin-7-yl)-2,4-dioxo-furo[3,2-d]pyrimidin-1-yl]propanenitrile] | 6.24
